Experimental findings from patent publication US20230391838A1 (priority 2020, published 2023) are described below.

*1 amine or outer side, *2 acyl side, *3 side chain or, on linkers, in order; H or OH if unused. Where a SMILES comes first, the peptide text is derived from it. Bridges are numbered along the chain shown (N, C = ends). [ ]: non-standard residue; d: D form. Tyr(3-I) = N[C@@H](Cc1ccc(O)c(I)c1)C(=O)O; β3hY = N[C@H](CC(=O)O)Cc1ccc(O)cc1; CH2 = C([*:1])[*:2]

The conditions of the data set: pH 7.4.

As for `C[C@@H](O)[C@@H]1NC(=O)[C@@H]2CSCSC[C@@H](C(=O)N[C@H](CC(=O)N[C@@H](CCCNC(=N)N)C(=O)O)Cc3ccc(O)cc3)NC(=O)[C@H](CCC(N)=O)NC(=O)[C@H](Cc3ccc(O)c(I)c3)NC(=O)[C@H](CCCNC(=N)N)NC(=O)[C@H](CSSC[C@H](NC(=O)CN)C(=O)N2)NC(=O)[C@H](CCCNC(=N)N)NC(=O)[C@@H]2CCCN2C(=O)[C@H](CC(=O)O)NC1=O` [RgIA-5524, G C^I C^II T D P R C^III R (iY) Q C^IV (bhY) R] (H-GCCTDPRCR[Tyr(3-I)]QC[β3hY]R-OH; disulfide 2-8; linker 3-12 via CH2), the “disulfide scrambling in presence of reduced glutathione (in words)” value is reported as “largely suppress disulfide scrambling”.
